Among the data in patent US20220242850A1, “PHTHALAZIN-1-ONE DERIVATIVES USEFUL AS GRK2 INHIBITORS” (Janssen Pharmaceutica NV, priority 2019, published 2022) are IC50 values, retold here.

Values joined by “and” are separate entries in the source; they are usually repeats but may differ in a detail not shown here. Identical values can stand only once.

One experiment has as its target T1, GRK2 (Homo sapiens, UniProt P25098).
T1 sequence (P25098 1-689): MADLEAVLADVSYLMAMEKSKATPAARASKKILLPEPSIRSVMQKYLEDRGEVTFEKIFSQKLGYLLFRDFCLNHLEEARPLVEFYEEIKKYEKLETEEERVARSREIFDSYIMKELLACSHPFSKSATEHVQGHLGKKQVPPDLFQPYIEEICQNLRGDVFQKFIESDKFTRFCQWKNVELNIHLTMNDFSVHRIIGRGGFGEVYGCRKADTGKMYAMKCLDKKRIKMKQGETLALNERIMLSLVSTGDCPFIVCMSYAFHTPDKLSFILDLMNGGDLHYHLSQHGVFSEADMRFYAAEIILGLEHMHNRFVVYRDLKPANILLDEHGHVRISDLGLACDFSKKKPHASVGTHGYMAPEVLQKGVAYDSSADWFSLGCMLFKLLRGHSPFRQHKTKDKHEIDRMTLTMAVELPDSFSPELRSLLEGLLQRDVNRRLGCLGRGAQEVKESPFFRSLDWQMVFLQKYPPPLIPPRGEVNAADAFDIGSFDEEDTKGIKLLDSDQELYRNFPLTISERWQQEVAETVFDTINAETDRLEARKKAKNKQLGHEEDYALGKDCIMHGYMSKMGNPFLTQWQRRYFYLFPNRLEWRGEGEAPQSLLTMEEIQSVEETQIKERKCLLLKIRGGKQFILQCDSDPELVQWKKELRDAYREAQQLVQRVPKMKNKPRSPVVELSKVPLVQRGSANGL
Put plainly: hGRK2 LANCE Ultra In Vitro Assay. Format: biochemical. As to conditions: hGRK2 LANCE Ultra Assay IC50, 10 nM GRK2; ATP 30 or 600 μM (not stated which). As to the method: G-protein coupled receptor kinases (GR Kinases) desensitize activated G-protein coupled receptors (GPCRs), by phosphorylation of cytoplasmic loops or carboxyl-terminal tails of GPCRs. GRK2 is one of the 6 different GR kinases and is implicated in heart failure and diabetes.
This assay is sensitive and requires as low as 10 nM enzyme, in a total volume of 10 μL. In addition, the ATP concentration can be varied over a broad range, without interfering with the assay or changing the assay condition. […] Testing inhibitors routinely at both high and low ATP concentrations also enables identification of potential non-ATP competitive inhibitors.
Paroxetine was used as the reference compound in this assay.
Test compounds were dissolved in DMSO at 1 mM and were 3-fold serial diluted. The compound DMSO solutions were then added (100 nL) into a plate well using an acoustic dispenser. To each well was then added 20 nM GRK2 (5 μL) in assay buffer (20 mM HEPES, pH 7.5, 10 mM MgCl2, 0.001% Tween-20®). The plate was sealed and centrifuged at 1000 rpm for 1 min. The plate and wells containing a mixture of GRK2 and test compound were incubated at ambient temperature for 30 min (prior to initializing the enzymatic reaction).
Enzyme reactions were initiated by the addition of 4.9 μL Substrates/Eu-Ab mix to each well. […] Final concentrations of reagents in the assays were as follows: 20 mM HEPES, pH 7.5; 10 mM MgCl2; 0.001% Tween-2® (w/v), 30 or 600 μM ATP; 200 nM ULight-peptide; 4 nM Eu-Ab; 10 nM GRK2; and 1% DMSO.
The plates were sealed and centrifuged at 1000 rpm for 1 min. For reactions at low ATP concentration (30 μM), reaction mixtures were incubated at ambient temperature for 120 min. For reactions at high ATP concentration (600 μM), reaction mixtures were incubated at ambient temperature for 60 min.
The enzyme reactions were quenched by addition of 10 μL of 12 mM EDTA in 1× LANCE detection solution to each well. The plates were then incubated at ambient temperature for 30 min.
The raw HTRF data were converted to % active as follows:
% active=(sample−NC)/(PC−NC)*100
where NC is the mean of negative control (reactions without GRK2), and PC is the mean of positive control (reactions with GRK2 but without inhibitor). IC50 values were determined from a 4-parameter fit, using the following equation:
(§1) Y=Bottom+(Top−Bottom)/(1+10^(Log IC50-X)*Hill slope)),
(§2) where X=log10 of the compound concentration.
As a reminder, the IC50 is the concentration that gives 50% inhibition. Low readings indicate higher potency, high ones lower potency. `Cc1cccc(Cl)c1CNC(=O)c1cccc(Cn2ncc3ccc(-c4cn[nH]c4)cc3c2=O)c1` [Compound 2, N-[(2-Chloro-6-methyl-phenyl)methyl]-3-[[1-oxo-7-(1H-pyrazol4-yl)phthaiazin-2-yl]methyl]benzamide] gave an IC50 below 5 nM. `O=C(NC1CC1)c1cc(F)cc(Cn2ncc3ccc(-c4cn[nH]c4)cc3c2=O)c1` [Compound 5] had a half-inhibitory concentration (IC50) of 6.3 nM.

Take `C#CCOc1cccc(Cn2ncc3ccc(-c4cn[nH]c4)c(F)c3c2=O)c1` [Compound 14, 8-Fluoro-2-[(3-prop-2-ynoxyphenyl)methyl]-7-(1H-pyrazol-4-yl)phthalazin-1-one]: the half-inhibitory concentration (IC50) came to 25 nM.

`CN(C)C(=O)COc1cccc(Cn2ncc3ccc(-c4cn[nH]c4)cc3c2=O)c1` [Compound 12, N,N-Dimethyl-2-[3-[[1-oxo-7-(1H-pyrazol-4-yl)phthalazin-2-yl]methyl]phenoxy]acetamide] gave an IC50 of 13 nM. Against the preceding compound, the IC50 is about 1.9-fold lower.

`O=C(NC1CC1)c1cccc(Cn2ncc3ccc(-c4cn[nH]c4)cc3c2=O)c1` [Compound 7, N-Cyclopropyl-3-[[1-oxo-7-(1H-pyrazol-4-yl)phthalazin-2-yl]methyl]benzamide]: the IC50 worked out at 10 nM.

`C#CCNC(=O)c1cccc(Cn2ncc3ccc(-c4cn[nH]c4)cc3c2=O)c1` [Compound 8, 3-[[1-Oxo-7-(1H-pyrazol-4-yl)phthalazin-2-yl]methyl]-N-prop-2-ynyl-benzamide] displayed a half-inhibitory concentration (IC50) of 10 nM. As to `O=C(NC1CC1)c1cc(Cn2ncc3ccc(-c4cn[nH]c4)cc3c2=O)ccc1F` [Compound 13, N-Cyclopropyl-2-fluoro-5-[[1-oxo-7-(1H-pyrazol-4-yl)phthalazin-2-yl]methyl]benzamide], the IC50 came to 18 nM.

The target in a further experiment is T1, GRK2. Put plainly: GRK2 Transcreener Assay. The conditions noted are these: 10 nM GRK2, 10 uM ATP, 150 uM peptide substrate. In kind it is biochemical. On the procedure: Positive and negative control wells received an equal volume of DMSO. The final DMSO concentration in the assay is 1%.
The plate was placed in centrifuge equipped with a spin-bucket rotor and spun for 1 min at 1000 rpm.
GRK2 enzymatic reactions were initiated with the addition of 2 μL/well of 50 nM GRK2 in assay buffer. Plates were centrifuged for 1 min at 1000 rpm. For negative control wells, the order of reagent addition was reversed: 10 μL/well ADP detection mix (see below) was added first, followed by the addition of 2 μL/well of the GRK2 solution. Reaction mixtures were incubated at ambient temperature for 2 hours.
Following incubation, the reactions were quenched with 10 μL/well of the Transcreener ADP detection mix. […] The plates were then centrifuged for 1 min at 1000 rpm.
Fluorescence polarization values of the reaction mixtures were read on a Safire II plate reader after a 60 min incubation at ambient temperature. Excitation wavelength=590 nm: emission wavelength=650 nm.
The fluorescence polarization data were converted to % activity as follows:
% activity=(sample−NC)/(PC−NC)*100
where NC is the mean of negative control (ADP detection mix added prior to GRK2 addition), and PC is the mean of positive control (GRK2 reaction without inhibitor). IC50 values are determined from a 4-parameter fit, using the following equation:
as §1, §2
In turn, `COC(=O)COc1cccc([C@@H](C)n2ncc3ccc(-c4ccnc(N)n4)cc3c2=O)c1` (single isomer, unassigned) [Compound 27] came in with a half-inhibitory concentration (IC50) of 1900 nM. In other words, the single-digit micromolar range.

`COC(=O)COc1cccc(Cn2ncc3ccc(-c4cn[nH]c4)cc3c2=O)c1` [Compound 37, Methyl 2-[3-[[1-oxo-7-(1H-pyrazol-4-yl)phthalazin-2-yl]methyl]phenoxy]acetate] gave an IC50 below 5 nM. `O=c1c2cc(-c3cn[nH]c3)ccc2cnn1Cc1cccc(OC(F)(F)F)c1` [Compound 39, 7-(1H-Pyrazol-4-yl)-2-[[3-(trifluoromethoxy)phenyl]methyl]phthalazin-1-one] showed a half-maximal inhibitory concentration (IC50) above 50000 nM.

Compound `COc1cccc([C@@H](C)n2ncc3ccc(-c4ccnc(N)n4)cc3c2=O)c1` (single isomer, unassigned) [Compound 33] had an IC50 of 7700 nM.

In turn, `COc1cccc(Cn2ncc3ccc(-c4ccoc4)cc3c2=O)c1` [Compound 36, 7-(3-Furyl)-2-[(3-methoxyphenyl)methyl]phthalazin-1-one] had a 50% inhibitory concentration (IC50) of 900 nM. For the compound `COC(=O)CCNC(=O)c1cccc(Cn2ncc3ccc(-c4cn[nH]c4)cc3c2=O)c1` [Compound 24, Methyl 3-[[3-[[1-oxo-7-(1H-pyrazol-4-yl)phthalazin-2-yl]methyl]benzoyl]amino]propanoate], half-maximal inhibition (IC50) was put at 7.4 nM.

With `COc1cccc(Cn2ncc3ccc(-c4ccnc(N)n4)cc3c2=O)c1` [Compound 34, 7-(2-Aminopyrimidin-4-yl)-2-[(3-methoxyphenyl)methyl]phthalazin-1-one], the IC50 was determined as 890 nM. This IC50 is about 120-fold higher than that of the compound before. On the same count and under the same terms, the figure for `COC(=O)Cc1cccc(Cn2ncc3ccc(-c4cn[nH]c4)cc3c2=O)c1` [Compound 25, Methyl 2-[3-[[1-oxo-7-(1H-pyrazol-4-yl)phthalazin-2-yl]methyl]phenyl]acetate] is 220 nM; for `[2H]C([2H])(Oc1cccc([C@@H](C)n2ncc3ccc(-c4cn[nH]c4)cc3c2=O)c1)C(=O)OC` (single isomer, unassigned) [Compound 21] it is 23 nM; for `C[C@H](c1cccc(OCC(=O)O)c1)n1ncc2ccc(-c3ccnc(N)n3)cc2c1=O` (single isomer, unassigned) [Compound 22] it is 11000 nM. In turn, `Cc1n[nH]cc1-c1ccc2cnn([C@H](C)c3cccc(OCCOC4CC4)c3)c(=O)c2c1` (single isomer, unassigned) [Compound 31] returned a half-maximal inhibitory concentration (IC50) of 6200 nM.

`C[C@H](c1cccc(OCC(=O)O)c1)n1ncc2ccc(-c3cn[nH]c3)cc2c1=O` (single isomer, unassigned) [Compound 29] registered an IC50 of 47 nM. `Cc1n[nH]cc1-c1ccc2cnn([C@H](C)c3cccc(OCC(=O)O)c3)c(=O)c2c1` (single isomer, unassigned) [Compound 28] registered an IC50 of 410 nM. The compound `O=C(O)COc1cccc(Cn2ncc3ccc(-c4cn[nH]c4)cc3c2=O)c1` [Compound 38, 2-[3-[[1-Oxo-7-(1H-pyrazol-4-yl)phthalazin-2-yl]methyl]phenoxy]acetic acid] came in with a half-inhibitory concentration (IC50) of 8 nM.

Compound `CCC(c1cccc(OC)c1)n1ncc2ccc(-c3cn[nH]c3)cc2c1=O` (stereo not shown) [Compound 32, 2-[1-(3-Methoxyphenyl)propyl]-7-(1H-pyrazol-4-yl)phthalazin-1-one] registered an IC50 of 1600 nM. This IC50 lies about 200-fold higher than the previous one. In turn, `O=C(O)CCNC(=O)c1cccc(Cn2ncc3ccc(-c4cn[nH]c4)cc3c2=O)c1` [Compound 26, 3-[[3-[[1-Oxo-7-(1H-pyrazol-4-yl)phthalazin-2-yl]methyl]benzoyl]amino]propanoic acid] returned an IC50 of 520 nM.

In turn, `[2H]C([2H])(Oc1cccc([C@@H](C)n2ncc3ccc(-c4cn[nH]c4)cc3c2=O)c1)C(=O)O` (single isomer, unassigned) [Compound 20] returned an IC50 of 190 nM. Consider `C[C@H](c1cccc(OCCOC2CC2)c1)n1ncc2ccc(-c3cn[nH]c3)cc2c1=O` (single isomer, unassigned) [Compound 30], for which the midpoint of inhibition, the IC50, lay at 660 nM. Still for that read-out and setting: the figure for `O=c1c2cc(-c3cn[nH]c3)ccc2cnn1Cc1ccccc1` [Compound 40, 2-Benzyl-7-(1H-pyrazol-4-yl)phthalazin-1-one] is 300 nM; for `O=C(O)Cc1cccc(Cn2ncc3ccc(-c4cn[nH]c4)cc3c2=O)c1` [Compound 23, 2-[3-[[1-oxo-7-(1H-pyrazol-4-yl)phthalazin-2-yl]methyl]phenyl]acetic acid] it is 1300 nM; for `COc1cccc(Cn2ncc3ccc(-c4c[nH]nc4C)cc3c2=O)c1` [Compound 35, 2-[(3-Methoxyphenyl)methyl]-7-(3-methyl-1H-pyrazol-4-yl)phthalazin-1-one] it is 140 nM and 120 nM.
